Measured values taken from patent US11976062B2, “Benzisoxazole compound” (OSAKA UNIVERSITY, priority 2018, dated 2024).

Assays:
[1] = tested on: α-SMA expression induced by TGFβ1 in dermal fibroblasts; test: Fibrosis inhibition evaluation 1: western blotting of α-SMA in dermal fibroblasts; type: cell-based, mice; conditions: compound 011 0.1, 1, 10 μM (especially 10 μM); Pyr 2 10 μM; TGFβ1 10 ng/ml, 48 hours
Experimental: The expression of α-smooth muscle actin (α-SMA) in fibroblasts was evaluated by western blotting. Dermal fibroblasts were isolated from 1 to 3-day-old mice, and 2.5×10^5 cells were seeded in a 12-well plate. After 24 hours, the medium was replaced with a medium free of fetal bovine serum, and the cells were cultured for another 24 hours. Thereafter, 10 ng/ml of transforming growth factor β1 (TGFβ1) was added, and the cells were cultured for 48 hours. At the same time as TGFβ1 was added, a test compound (compound 011) of a predetermined concentration (0.1 μM, 1 μM, 10 μM) and 10 μM of Pyr 2 or DMSO (solvent control) were also added. […] The cultured cells were dissolved in a lysis buffer (140 mM NaCl, 20 mM Tris-HCl pH 7.8, 1% Triton-X100, 0.05% sodium deoxycholate, 0.1% SDS, 2 mM EDTA, proteinase inhibitor cocktail), and separated by SDS-PAGE, followed by detecting α-SMA using anti-α-SMA antibody (Sigma) as the primary antibody and anti-mouse IgG antibody (cell signaling) fused with horse radish peroxidase as the secondary antibody.

dermal fibroblasts = test: Fibrosis inhibition evaluation 1: cell morphology observation of dermal fibroblasts; type: cell-based, mice; conditions: dermal fibroblasts cultured 48 hours with TGFβ1

For `O=C(O)c1cnc(N2CCN(c3noc4cccc(C(F)(F)F)c34)CC2)c(Cl)c1` [Compound 011, 5-chloro-6-(4-(4-(trifluoromethyl)benzo[d]isoxazol-3-yl)piperazin-1-yl) nicotinic acid], the “expression of α-SMA induced by TGFβ1 (western blotting)” value [1] was “potently inhibited the expression of α-SMA induced by TGFβ1” and the “cell morphology / cell damage by microscopic observation” value (dermal fibroblasts) was “no change in cell morphology and no cell damage”.
